Values quoted from earlier work, collected in patent publication US8821921B2, “Vitamin D3 for the transdermal treatment of pain and inflammation” (Anzamed International Limited, priority 2009, dated 2014).

Test system: diabetic neuropathic pain
Details: daily oral doses, patients with diabetic neuropathy

In the case of `C=C1CC[C@H](O)C/C1=C/C=C1\CCC[C@]2(C)[C@@H]([C@H](C)CCCC(C)C)CC[C@@H]12` [vitamin D3, cholecalciferol], the diabetic neuropathic pain is listed as “significant reduction”.
